# From patent publication US20090048173A1, “Use Of Dipyridamole For Treatment Of Resistance To Platelet Inhibitors” (priority 2004, published 2009)
# “Also recorded” adds a separate entry of the source.
# Tests used:
# [1] = tested on: platelet aggregability; details: aspirin resistant or aspirin semiresponders; literature 2001-2004; cited from earlier work
# [2] = tested on: platelets; experiment: Platelet aggregation, conventional aggregometry, in blood of aspirin/clopidogrel resistant stroke/TIA patients pretreated in vitro with dipyridamole; type: cell-based, human; details: for Platelet aggregation 5 μM ADP: baseline 65.5 ± 6.3; for Platelet aggregation Collagen 1 μM / Platelet aggregation Arachidonic Acid 0.75 μM: non-responder blood, 45 min; for Platelet aggregation Collagen 1 μM: baseline 65.9 ± 8.9; for Platelet aggregation Arachidonic Acid 0.75 μM: baseline 72.5 ± 9.5
# Experimental: (§1) Aspirin/clopidogrel resistance is defined by lack of platelet inhibition after one month of mono- or combination therapy. Lack of platelet inhibition is defined when 4 out of the following 5 parameters are met: ADP-induced platelet aggregation remains >60%; collagen-induced aggregation >70%; whole blood aggregation >18 ohms; expression of GP IIb/IIIa >220 log MFI; and P-selectin cell positivity >8%.
# (§2) Experiments are done (blood is incubated) with dipyridamole 2 μM/L and 4 μM/L.
# (§3) Twenty ml of blood were collected from each participant, divided into 3 parts, and 2 parts were incubated for 45 min with 2 μM/L and 4 μM/L of Dipyridamole. This concentration corresponds to the physiological Dipyridamole concentration in plasma achieved 0.8-12 hours after oral administration of Aggrenox (25 mg of aspirin+200 mg of Dipyridamole). The third portion was incubated with the vehicle and served as internal control.
# (§4) Patients on other antithrombotic agents including COX inhibitors, and NSAID were excluded. Blood samples were pretreated with dipyridamole (2 mkg/ml, 4 mkg/ml), simulating the therapeutic range, and then incubated for 45 minutes at 37° C. Platelets were assessed by conventional (1 μM collagen, 0.75 μM arachidonic acid, and 5 μM ADP), and whole blood (1 mg/ml collagen) aggregometry; the expression of GP IIb/IIIa, P-selectin, annexin V binding, intact (SPAN12), and cleaved (WEDE15) PAR-1 thrombin receptors by flow cytometry. Markers of TR (D-Dimer, Thrombin-Antithrombin-III Complexes, and Prothrombin Fragment F1+2) were measured in the autologous plasma samples by ELISA.
# [3] = tested on: GP IIb/IIIa; experiment: Flow cytometry: platelet expression of CD41a (GP IIb/IIIa); type: cell-based, human; details: for Flow-cytometry CD41a (GP IIb), MFI: non-responder blood, 45 min, baseline 429.0 ± 52.1
# Experimental: as §1, §2, §3, §4
# [4] = tested on: P-selectin; experiment: Flow cytometry: platelet expression of CD62p (P-selectin); type: cell-based, human; details: non-responder blood, 45 min, baseline 10.0 ± 1.8
# Experimental: as §1, §2
# Twenty ml of blood were collected from each participant, divided into 3 parts, and 2 parts were incubated for 45 min with 2 μM/L and 4 μM/L of Dipyridamole. This concentration corresponds to the physiological Dipyridamole concentration in plasma achieved 0.8-12 hours after oral administration of Aggrenox (25 mg of aspirin+200 mg of Dipyridamole). […]
# Patients on other antithrombotic agents including COX inhibitors, and NSAID were excluded. […] Platelets were assessed by conventional (1 μM collagen, 0.75 μM arachidonic acid, and 5 μM ADP), and whole blood (1 mg/ml collagen) aggregometry; the expression of GP IIb/IIIa, P-selectin, annexin V binding, intact (SPAN12), and cleaved (WEDE15) PAR-1 thrombin receptors by flow cytometry. Markers of TR (D-Dimer, Thrombin-Antithrombin-III Complexes, and Prothrombin Fragment F1+2) were measured in the autologous plasma samples by ELISA.
# [5] = tested on: Thrombin receptor (PAR-1); experiment: Flow cytometry: intact (SPAN12) and cleaved (WEDE15) PAR-1 thrombin receptors on platelets; type: cell-based, human; details: for Thrombin receptor (PAR-1) WEDE 15 (epitope of cleaved receptors) / Thrombin receptor (PAR-1) SPAN 12 (epitope of intact receptor): non-responder blood, 45 min; for Thrombin receptor (PAR-1) WEDE 15 (epitope of cleaved receptors): baseline 20.2 ± 3.4; for Thrombin receptor (PAR-1) SPAN 12 (epitope of intact receptor): baseline 31.6 ± 6.4
# Experimental: as §1, §2, §3, §4
# [6] = tested on: Annexin V binding sites on platelets; experiment: Flow cytometry: Annexin V binding on platelets; type: cell-based, human; details: for Annexin V binding (PS % positive cells): non-responder blood, 45 min, baseline 9.5 ± 2.7
# Experimental: as §1, §2, §3, §4
# [7] = tested on: thrombin generation; experiment: Thrombin generation markers in autologous plasma by ELISA; type: cell-based, human; details: for Prothrombin fragment F1 + 2 / Thrombin-antithrombin III Complex / Thrombin generation markers D-dimer: non-responder blood, 45 min; for Prothrombin fragment F1 + 2: baseline 1.9 ± 1.0; for Thrombin-antithrombin III Complex: baseline 3.2 ± 1.1; for Thrombin generation markers D-dimer: baseline 325.0 ± 84.6
# Experimental: as §1, §2, §3, §4
# [8] = ESPS-2; J Neurol Sci. 1996; Neurology 1998; cited from earlier work
# [9] = DIP in vitro, 2 and 4 mkg/ml, blood of AR patients, listed as DIP
# [10] = addition of DIP in vitro in AR patients
# [11] = Dipyridamole 4 μg/ml, p = 0.022
smiles,measurement,setting,value
"CC(=O)Oc1ccccc1C(=O)O [ASA, acetylsalicylic acid]",patients treated with ASA who did not show appropriate reduction in platelet aggregability,[1],up to 30%
"OCCN(CCO)c1nc(N2CCCCC2)c2nc(N(CCO)CCO)nc(N3CCCCC3)c2n1 [Dipyridamole, 2,6-bis(diethanolamino)-4,8-dipiperidino-pyrimido[5,4-d]pyrimidine]",Platelet aggregation / aggregometry (in words),[2]; [9],not affected; also recorded: not changed
same,Platelet aggregation 5 μM ADP,"[2]; non-responder blood (n = 20) incubated 45 min at 37° C. with Dipyridamole 2 μg/ml, p = 0.13",63.6 ± 6.8%
same,Platelet aggregation 5 μM ADP,"[2]; non-responder blood (n = 20) incubated 45 min at 37° C. with Dipyridamole 4 μg/ml, p = 0.66",63.8 ± 6.8%
same,Platelet aggregation Collagen 1 μM,"[2]; Dipyridamole 2 μg/ml, p = 0.13",64.2 ± 7.4%
same,Platelet aggregation Arachidonic Acid 0.75 μM,"[2]; Dipyridamole 2 μg/ml, p = 0.41",71.4 ± 7.3
same,Platelet aggregation Collagen 1 μM,"[2]; Dipyridamole 4 μg/ml, p = 0.38",64.2 ± 6.9%
same,Platelet aggregation Arachidonic Acid 0.75 μM,"[2]; Dipyridamole 4 μg/ml, p = 0.12",70.6 ± 6.2
same,GP IIb/IIIa (in words),[3]; [10],sustained blockade
same,"Flow-cytometry CD41a (GP IIb), MFI","[3]; Dipyridamole 2 μg/ml, p = 0.12",417.6 ± 49.5 MFI
same,"Flow-cytometry CD41a (GP IIb), MFI","[3]; Dipyridamole 4 μg/ml, p = 0.22",419.4 ± 49.1 MFI
same,"Flow-cytometry CD62p (P-selectin), % +","[4]; Dipyridamole 2 μg/ml, p = 0.308",9.4 ± 2.8 % +
same,"Flow-cytometry CD62p (P-selectin), % +","[4]; Dipyridamole 4 μg/ml, p = 0.21",9.4 ± 2.4 % +
same,PAR-1 receptors (in words),[5]; [10],sustained blockade
same,expression of intact PAR-1 receptor (in words),[5]; after incubation with 2 mkg/ml and 4 mkg/ml of dipyridamole (p=0.02 and p=0.024),diminished expression
same,Thrombin receptor (PAR-1) WEDE 15 (epitope of cleaved receptors),"[5]; Dipyridamole 2 μg/ml, p = 0.0507",18.4 ± 3.1
same,Thrombin receptor (PAR-1) SPAN 12 (epitope of intact receptor),"[5]; Dipyridamole 2 μg/ml, p = 0.02",27.8 ± 5.4
same,Thrombin receptor (PAR-1) WEDE 15 (epitope of cleaved receptors),[5]; [11],18.1 ± 3.0
same,Thrombin receptor (PAR-1) SPAN 12 (epitope of intact receptor),"[5]; Dipyridamole 4 μg/ml, p = 0.024",29.1 ± 5.5
same,activity of the cleaved PAR-1 (in words),"[5]; only after incubation with 4 mkg/ml, statistically significant (p=0.022)",decreased activity
same,annexin V binding (in words),"[6]; after incubation with 2 mkg/ml and 4 mkg/ml of dipyridamole (p=0.031 and p=0.02), listed as DIP",diminished; also recorded: sustained blockade
same,Annexin V binding sites compared to pre-incubation,"[6]; incubation of cells with DIP, patients with anti-platelet therapy resistance, e.g. ASA or clopidogrel resistance",significant reduction
same,Annexin V binding (PS % positive cells),"[6]; Dipyridamole 2 μg/ml, p = 0.031",7.9 ± 2.3 % positive cells
same,Annexin V binding (PS % positive cells),[6]; [11],7.7 ± 1.9 % positive cells
same,TG markers / TR markers (in words),[7]; [9],not affected; also recorded: not changed
same,Prothrombin fragment F1 + 2,"[7]; Dipyridamole 2 μg/ml, p = 0.17",1.8 ± 1.0 nM/L
same,Thrombin-antithrombin III Complex,"[7]; Dipyridamole 2 μg/ml, p = 0.49",3.2 ± 1.2 µg/L
same,Thrombin generation markers D-dimer,"[7]; Dipyridamole 2 μg/ml, p = 0.55",316.1 ± 90.1 µg/L
same,Prothrombin fragment F1 + 2,"[7]; Dipyridamole 4 μg/ml, p = 0.41",1.8 ± 0.9 nM/L
same,Thrombin-antithrombin III Complex,"[7]; Dipyridamole 4 μg/ml, p = 0.24",3.1 ± 1.2 µg/L
same,Thrombin generation markers D-dimer,"[7]; Dipyridamole 4 μg/ml, p = 0.48",310.8 ± 83.8 µg/L
same,reduction of stroke risk,[8],as effective as low-dose aspirin
